pIC50: −log10 of the molar value.
Test system: Phosphorylation of STAT6 in human A549 cells
Experiment: Phosphorylated STAT6 (pSTAT6) flow cytometry assay in human A549 cells
Format: cell-based
Details: read-out: STAT6 IL4 pSTAT6 assay in A549 cells: Average IC50
From the text: Example 3. Phosphorylated STAT6 (pSTAT6) Flow Cytometry Assay in Human A549 Cells
Phosphorylation of STAT6 in human A549 cells was quantitatively measured using flow cytometry technology.

Row | Compound | pIC50
1 | Methyl 5-(3-(5-(2-(dimethylcarbamoyl)benzofuran-5-yl)-1,2,3,6-tetrahydropyridine-1-carbonyl)-2-formyl-1,2,3,4-tetrahydroisoquinolin-5-yl)pent-4-ynoate [Example I-802] | > 7.00
2 | COc1ccccc1-c1cc(C2=CCCN(C(=O)CCn3ccnn3)C2)c(F)c2[nH]c(C(=O)N3CCN(c4ccc5nn(C)cc5c4C)CC3)cc12 [Example I-945] | 6.00 to 7.00
3 | C[C@@H](C(=O)N1CCC=C(c2ccc3cc(C(=O)N(C)C)[nH]c3c2)C1)n1ccccc1=O [Example I-834] | 6.00 to 7.00
4 | COc1ccccc1-c1cc(C2=CCCN(C(C)=O)C2)c(F)c2[nH]c(C(=O)N3CCN(c4ncccc4OC)CC3)cc12 [Example I-553] | 6.00 to 7.00
5 | COc1cc(F)cnc1N1CCN(C(=O)c2cc3c(-c4ccc(NC5CCCC5)cc4)cc(C4=CCCN(C(=O)CCn5ccnn5)C4)c(F)c3[nH]2)CC1 [Example I-1124] | 6.00 to 7.00
6 | CCCCOc1ccc(-c2cc(C3=CCCN(C(=O)CCn4ccnn4)C3)c(F)c3[nH]c(C(=O)N4CCN(c5ncc(F)cc5OC)CC4)cc23)cc1 [Example I-1127] | 6.00 to 7.00
7 | COc1cc(F)cnc1N1CCN(C(=O)c2cc3c(-c4ccncc4C(C)C)cc(C4=CCCN(C(=O)CCn5ccnn5)C4)c(F)c3[nH]2)CC1 [Example I-703] | 4.00 to 5.00
8 | CCC1CCCC=C1c1cc(C2=CCCN(C(=O)CCn3ccnn3)C2)c(F)c2[nH]c(C(=O)N3CCN(c4ncccc4OC)CC3)cc12 (stereo not drawn) [Example I-1168] | 6.00 to 7.00
9 | COc1ccccc1N1CCN(C(=O)c2cc3c(-c4cnccc4OC(C)C)cc(C4=CCCN(C(=O)CCn5ccnn5)C4)c(F)c3[nH]2)CC1 [Example I-403] | < 4.00
10 | CN(C)C(=O)c1cc2c(F)c(C3=CCCN(C(=O)[C@H]4Cc5ccccc5CN4C=O)C3)ccc2o1 (single isomer, unassigned) [Example I-376] | < 4.00
11 | COc1ccc(-c2cc(C3=CCCN(C(=O)CCn4ccnn4)C3)cc3cc(C(=O)N(C)C)oc23)c(C#N)c1 [Example I-854] | > 7.00
12 | COc1cc(F)cnc1N1CCN(C(=O)c2cc3c(-c4cnccc4C(C)C)cc(C4=CCCN(C(=O)CCn5cccn5)C4)c(F)c3[nH]2)CC1 [Example I-669] | > 7.00
13 | COc1ccccc1-c1cc(C2=CCCN(C(=O)CCn3ccnn3)C2)c(F)c2[nH]c(C(=O)N3CCN(c4c(OC)cccc4OC)CC3)cc12 [Example I-350] | > 7.00
14 | COc1ccccc1-c1cc(C2=CCCN(C(=O)CCn3ccnn3)C2)c(F)c2[nH]c(C(=O)N3CCN(c4ncccc4F)CC3)cc12 [Example I-361] | > 7.00
15 | COc1ccccc1-c1cc(C2=CCCN(C(=O)CCn3ccnn3)C2)c(F)c2[nH]c(C(=O)N3CCN(c4nccc5cnccc45)CC3)cc12 [Example I-362] | > 7.00
16 | COC(=O)C1CN(C(=O)c2cc3c(-c4ccccc4OC)cc(C4=CCCN(C(=O)CCn5ccnn5)C4)c(F)c3[nH]2)CC1C (stereo not drawn) [Example I-998] | > 7.00
17 | COc1ccccc1-c1cc(C2=CCCN(C(=O)CCn3ccnn3)C2)c(F)c2[nH]c(C(=O)N3CCc4cccnc43)cc12 [Example I-848] | > 7.00

Row | Compound | pIC50
18 | CN(C)C(=O)c1cc2ccc(C3=CCCN(C(=O)CCn4ccnn4)C3)cc2s1 [Example I-816] | 6.00 to 7.00
19 | COc1ccncc1-c1cc(C2=CCCN(C(=O)CCn3ccnn3)C2)c(F)c2[nH]c(C(=O)N3CCN(c4cc5cc[nH]c5nc4C#N)CC3)cc12 [Example I-485] | > 7.00
20 | COc1cccnc1N1CCN(C(=O)c2cc3c(-n4nc(C)cc4C)cc(C4=CCCN(C(=O)CCn5ccnn5)C4)c(F)c3[nH]2)CC1 [Example I-586] | > 7.00
21 | COc1cc(F)cnc1N1CCN(C(=O)c2cc3c(-c4cnccc4C(C)C)cc(C4=CCCN(C(=O)CCn5ccnn5)C4)c(F)c3[nH]2)CC1 [Example I-668] | < 4.00
22 | COc1ccccc1-c1cc(C2=CCCN(C(=O)CCn3ccnn3)C2)c(F)c2[nH]c(C(=O)N3CCc4ncccc43)cc12 [Example I-974] | > 7.00
23 | COc1ccccc1-c1cc(C2=CCCN(C(=O)CCn3ccnn3)C2)c(F)c2[nH]c(C(=O)N3CCN(c4ncccc4C#N)CC3)cc12 [Example I-328] | > 7.00
24 | COc1ccncc1-c1cc(C2=CCCN(C(=O)CCn3ccnn3)C2)c(F)c2[nH]c(C(=O)N3CC=C(c4ncc(F)cc4OC)CC3)cc12 [Example I-442] | > 7.00
25 | COc1ccncc1-c1cc(C2=CCCN(C(=O)CCn3ccnn3)C2)c(F)c2[nH]c(C(=O)N3CCN(c4ccc(F)c(OC)n4)CC3)cc12 [Example I-444] | > 7.00
26 | COc1ccncc1-c1cc(C2=CCCN(C(C)=O)C2)c(F)c2[nH]c(C(=O)N(C)C)cc12 [Example I-1094] | > 7.00
27 | CC(=O)N1CCC=C(c2cc(-c3cncc4ccccc34)c3cc(C(=O)N(C)C)[nH]c3c2F)C1 [Example I-1098] | > 7.00
28 | COc1cccnc1N1CCN(C(=O)c2cc3c(C4=C(C)CCCC4)cc(C4=CCCN(C(=O)CCn5ccnn5)C4)c(F)c3[nH]2)CC1 [Example I-569] | > 7.00
29 | CN(C)C(=O)c1cc2cc(C3=CCCN(C(=O)CCc4cccnn4)C3)ccc2o1 [Example I-820] | 6.00 to 7.00
30 | COc1ccccc1-c1cc(C2=CCCN(C(=O)CCn3ccnn3)C2)c(F)c2[nH]c(C(=O)N3CCN(c4ncccn4)C[C@@H]3C)cc12 [Example I-995] | > 7.00
31 | COc1cc(F)cnc1N1CCN(C(=O)c2cc3c(-c4ccc(-c5ccncc5)cc4)cc(C4=CCCN(C(=O)CCn5ccnn5)C4)c(F)c3[nH]2)CC1 [Example I-1118] | > 7.00
32 | CCc1cc(C)ncc1-c1cc(C2=CCCN(C(=O)CCn3cccn3)C2)c(F)c2[nH]c(C(=O)N3Cc4cnn(CC)c4C3)cc12 [Example I-537] | > 7.00
33 | COc1ccccc1-c1cc(C2=CCCN(C(=O)CCn3ccnn3)C2)c(F)c2[nH]c(C(=O)N3CCN(c4ncccc4OC)CC3)cc12 [Example I-326] | 4.00 to 5.00

Next, values leading:

Row | pIC50 | Compound
34 | > 7.00 | COc1ccccc1-c1cc(C2=CCCN(C(=O)CCn3ccnn3)C2)c(F)c2[nH]c(C(=O)N3CCN(c4nc5ccccc5nc4C)CC3)cc12 [Example I-339]
35 | > 7.00 | COc1ccncc1-c1cc(C2=CCCN(C(=O)CCn3ccnn3)C2)c(F)c2[nH]c(C(=O)N3CCN(c4cccc(F)c4OC)CC3)cc12 [Example I-563]
36 | > 7.00 | COc1ccccc1-c1cc(C2=CCCN(C(=O)CCn3ccnn3)C2)c(F)c2[nH]c(C(=O)N3CCN(c4ccccc4F)CC3)cc12 [Example I-418]
37 | > 7.00 | COc1ccccc1-c1cc(C2=CCCN(C(=O)CCn3ccnn3)C2)c(F)c2[nH]c(C(=O)N3CCN(c4ccn5nc(C)nc5c4)CC3)cc12 [Example I-919]
38 | > 7.00 | COc1ccccc1-c1cc(C2=CCCN(C(=O)CCn3ccnn3)C2)c(F)c2[nH]c(C(=O)N3CC(Oc4cccnc4)C3)cc12 [Example I-992]
39 | > 7.00 | COc1ccncc1-c1cc(C2=CCCN(C(=O)CCn3cccn3)C2)c(F)c2[nH]c(C(=O)N3CCN(c4ncc(F)cc4OC)CC3)cc12 [Example I-664]
40 | > 7.00 | CN(C)C(=O)c1cc2cc(C3=CCCN(C(=O)CCn4ccnn4)C3)cc(NCc3ccc(C#N)cc3)c2o1 [Example I-895]
41 | > 7.00 | COc1ccc(N2CCN(C(=O)c3cc4c(-c5ccccc5OC)cc(C5=CCCN(C(=O)CCn6ccnn6)C5)c(F)c4[nH]3)CC2)cc1 [Example I-960]
42 | > 7.00 | COc1ccccc1-c1cc(C2=CCCN(C(=O)CCn3ccnn3)C2)c(F)c2[nH]c(C(=O)N3CCN(c4cccnc4OC)CC3)cc12 [Example I-347]
43 | > 7.00 | CN(C)C(=O)c1cc2c(-c3ccccc3S(C)(=O)=O)cc(C3=CCCN(C(=O)CCn4ccnn4)C3)c(F)c2[nH]1 [Example I-1068]
44 | > 7.00 | COc1cc(F)cnc1N1CCN(C(=O)c2cc3c(C4=CCCCC4)cc(C4=CCCN(C(=O)CCn5ccnn5)C4)c(F)c3[nH]2)CC1 [Example I-1135]
45 | > 7.00 | COc1ccccc1-c1cc(C2=CCCN(C(=O)CCn3ccnn3)C2)c(F)c2[nH]c(C(=O)N3CCN(c4ncnc5ncn(C)c45)CC3)cc12 [Example I-920]
46 | > 7.00 | CC(=O)N1CCN(c2cc(C3=CCCN(C(=O)CCn4ccnn4)C3)cc3cc(C(=O)N(C)C)oc23)CC1 [Example I-1186]
47 | > 7.00 | COc1ccncc1-c1cc(C2=CCCN(C(=O)CCn3ccnn3)C2)c(F)c2[nH]c(C(=O)N3CCN(c4ccc(F)cc4OC)CC3)cc12 [Example I-482]
48 | > 7.00 | COc1cc(F)cnc1N1CCN(C(=O)c2cc3c(-c4cncc(OC(F)F)c4)cc(C4=CCCN(C(=O)CCn5ccnn5)C4)c(F)c3[nH]2)CC1 [Example I-651]
49 | > 7.00 | COc1cc(C)ncc1-c1cc(C2=CCCN(C(=O)CCn3ccnn3)C2)c(F)c2[nH]c(C(=O)N3CCN(c4ncccc4OC)CC3)cc12 [Example I-570]
50 | > 7.00 | COc1ccccc1-c1cc(C2=CCCN(C(=O)CCn3ccnn3)C2)c(F)c2[nH]c(C(=O)N3CCN(c4ncnc5cccc(F)c45)CC3)cc12 [Example I-929]
51 | > 7.00 | COc1cnc(N2CCN(C(=O)c3cc4c(-c5cnccc5OC)cc(C5=CCCN(C(=O)CCn6ccnn6)C5)c(F)c4[nH]3)CC2)c(OC)c1 [Example I-437]
52 | > 7.00 | COc1cnccc1-c1cc(C(=O)N2CCN(c3ncc(F)cc3OC)CC2)cc2cc(C3=CCCN(C(=O)CCn4ccnn4)C3)n(CC3CC3)c12 [Example I-729]
53 | > 7.00 | COc1ccccc1-c1cc(C2=CCCN(C(=O)CCn3ccnn3)C2)c(F)c2[nH]c(C(=O)N3CCN(Cc4nc(C)cs4)CC3)cc12 [Example I-1185]
54 | > 7.00 | COc1cc(F)c(F)cc1-c1cc(C2=CCCN(C(=O)CCn3ccnn3)C2)c(F)c2[nH]c(C(=O)N3CCN(c4ccccc4OC)CC3)cc12 [Example I-600]
55 | > 7.00 | CCc1ccncc1-c1cc(C2=CCCN(C(=O)CCn3cccn3)C2)c(F)c2[nH]c(C(=O)N3CCN(c4ncc(F)cc4OC)CC3)cc12 [Example I-686]
56 | > 7.00 | COc1ccccc1-c1cc(C2=CCCN(C(=O)CCn3ccnn3)C2)c(F)c2[nH]c(C(=O)N3CCN(c4ncc(Cl)cc4OC)CC3)cc12 [Example I-369]
57 | > 7.00 | COc1ccccc1-c1cc(C2=CCCN(C(=O)C3Cc4ccccc4CN3C=O)C2)cc2cc(C(=O)N(C)C)oc12 (stereo not drawn) [Example I-838]

From patent US20250214977A1, “STAT6 INHIBITORS AND USES THEREOF” (Kymera Therapeutics, Inc., priority 2024, published 2025)
